Consider 35 substances from patent US20230190924A1, “ANTIGEN OF ALLERGY AND EPITOPE THEREOF” (HOYU CO., LTD., priority 2017, published 2023).

In the test the test system is IgE antibodies from patients. Kind of test: Epitope mapping (2) overlapping (10-amino-acid peptides) and (3) alanine scanning on peptide arrays. It is filed as binding, human. The settings on record: for binding to IgE antibodies from patients, sequence comprising a region carboxy-terminally adjacent to the epitope / binding to IgE antibodies from patients, sequence comprising a region amino-terminally adjacent to the epitope: overlapping peptides with flanking sequence; for region within the epitope important for binding to IgE antibodies from patients: procedures (B) overlapping and (C) alanine scanning. On the procedure:
On the basis of the sequences (SEQ ID NOs: 272-295 for vitellogenin-2 precursor, SEQ ID NOs: 296-303 for vitellogenin-3, SEQ ID NOs: 304-311 for apolipoprotein B precursor, and SEQ ID NOs: 312-318 for vitellogenin-1 or lipovitellin-1) of the peptides bound to an IgE antibody in serum in a patient-specific manner as described above in (A), a library of overlapping peptide fragments (length: 10 amino acids) was prepared using the sequences of the peptides and sequences in which sequences were added so as to flank each peptide in the amino acid sequences of allergen components (amino acid sequences of SEQ ID NO: 59, 106 or 262 for vitellogenin-2 precursor, SEQ ID NO: 2, 13 or 47 for vitellogenin-3, SEQ ID NO: 152, 237 or 251 for apolipoprotein B, and SEQ ID NO: 18 for vitellogenin-1 or lipovitellin-1) comprising the sequences of the peptide to carry out epitope mapping.
The peptides to be synthesized were shifted by one amino acid.
The library was prepared by the same procedure as described above in (A), and the presence or absence of binding of an IgE antibody present in the serum of a patient and a non-egg-allergic subject to each peptide fragment was measured by the same technique as described above. Amino acids at positions where the binding activity against IgE antibodies from patients were lost or decreased in the peptides shifted by one amino acid while binding activity against IgE antibodies from non-egg-allergic subjects arose were confirmed as amino acids adversely affecting the specificity of binding to IgE antibodies.
Chemiluminescence intensity in images obtained by measurement was converted into a numeric value in the same manner as in (A) using ImageQuant TL (GE Healthcare). Numeric values determined from images obtained as a result of using only anti-human IgE antibody-HRP antibody without carrying out the procedures (2) and (3) described above in the subsection titled (3) Spotting of cellulose-bound peptide solution were […] numeric values determined from images obtained from results about the serum of 6 patients. It was determined that a peptide having the resulting value larger than 0 had no binding activity against IgE antibodies when having less than 20% of values obtained using the sequences (amino acid sequences of SEQ ID NO: 59, 106 or 262 for vitellogenin-2, SEQ ID NO: 2, 13 or 47 for vitellogenin-3, SEQ ID NO: 152, 237 or 251 for apolipoprotein B, and SEQ ID NO: 18 for vitellogenin-1 or lipovitellin-1) serving as the basis of overlapping, had binding activity, albeit poor, against IgE antibodies when having 20% or more and less than 50% thereof, had binding activity, albeit somewhat poor, against IgE antibodies when having 50% or more and less than 70% thereof, had almost equivalent binding activity against IgE antibodies when having 70% or more and less than 90% thereof, and had equivalent or good binding activity against IgE antibodies and thus had remaining binding activity against IgE antibodies when having 90% or more thereof.
From the amino acid sequences identified above in (A), a library of peptide fragments in which N-terminal amino acids were substituted one by one by alanine according to a technique called alanine scanning (Non Patent Literature 1) was prepared by the same technique as described above. The presence or absence of binding of an IgE antibody present in the serum of a patient and a non-egg-allergic subject to each peptide fragment was measured by the same technique as described above. Amino acids at positions where the binding activity against IgE antibodies from patients were lost or decreased by the substitution by alanine while binding activity against IgE antibodies from non-egg-allergic subjects arose were confirmed as amino acids important for exertion of original antigenicity, or amino acids influencing exertion of original antigenicity.

For the substance “SEQ ID NO: 556: sequence comprising a region carboxy-terminally adjacent to epitope 33 (NWAENLNQFI; epitope)”, the “binding to IgE antibodies from patients, sequence comprising a region carboxy-terminally adjacent to the epitope” value is given as “binding to IgE antibodies from patients”. As to “SEQ ID NO: 534: region in epitope 27 (GICGKYDAE; epitope)”, the “region within the epitope important for binding to IgE antibodies from patients” value (“region within the epitope important” for short) is on record as “important for binding”.

As for “SEQ ID NO: 336: sequence comprising a region carboxy-terminally adjacent to epitope 3 (ALKCIGNMGE; epitope)”, the “binding to IgE antibodies from patients, sequence comprising a region carboxy-terminally adjacent to the epitope” value is “binding to IgE antibodies from patients”.

As for “SEQ ID NO: 553: sequence comprising a region amino-terminally adjacent to epitope 33 (IVTLAEKYDL; epitope)”, the “binding to IgE antibodies from patients, sequence comprising a region amino-terminally adjacent to the epitope” value is “binding to IgE antibodies from patients”.

Consider “SEQ ID NO: 641: region in epitope 41 (SGYLKMF; epitope)”, for which the “region within the epitope important” value is given as “important for binding”. On to “SEQ ID NO: 359: sequence comprising a region amino-terminally adjacent to epitope 6 (VVNSPRTMF; epitiope)”, for which the “binding to IgE antibodies from patients, sequence comprising a region amino-terminally adjacent to the epitope” value was “binding to IgE antibodies from patients”. For “SEQ ID NO: 576: sequence comprising a region amino-terminally adjacent to epitope 35 (YQVSKRVS; epitope)”, the “binding to IgE antibodies from patients, sequence comprising a region amino-terminally adjacent to the epitope” value is “binding to IgE antibodies from patients”.

For “SEQ ID NO: 494: region in epitope 21 (DKLYFD; epitope)”, the “region within the epitope important” value is “important for binding”. With “SEQ ID NO: 351: sequence comprising a region carboxy-terminally adjacent to epitope 4 (PKTVQGYL; epitope)”, the “binding to IgE antibodies from patients, sequence comprising a region carboxy-terminally adjacent to the epitope” value is recorded as “binding to IgE antibodies from patients”. Consider “SEQ ID NO: 381: sequence comprising a region carboxy-terminally adjacent to epitope 8 (LPTETPLVS; epitope)”, for which the “binding to IgE antibodies from patients, sequence comprising a region carboxy-terminally adjacent to the epitope” value was “binding to IgE antibodies from patients”. Turning to “SEQ ID NO: 391: region in epitope 8 (GWKELPTET; epitope)”, the “region within the epitope important” value is recorded as “important for binding”. On to “SEQ ID NO: 319: sequence comprising a region amino-terminally adjacent to epitope 1 (LKVRSPQVEE; epitope)”, for which the “binding to IgE antibodies from patients, sequence comprising a region amino-terminally adjacent to the epitope” value was “binding to IgE antibodies from patients”. On to “SEQ ID NO: 360: sequence comprising a region carboxy-terminally adjacent to epitope 6 (PSAIISKLMA; epitope)”, for which the “binding to IgE antibodies from patients, sequence comprising a region carboxy-terminally adjacent to the epitope” value was “binding to IgE antibodies from patients”. With “SEQ ID NO: 392: region in epitope 8 (GWKELPTETP; epitope)”, the “region within the epitope important” value is “important for binding”.

Consider “SEQ ID NO: 355: region in epitope 5 (LLSPKLDS; epitope)”, for which the “region within the epitope important” value was “important for binding”.

In the case of “SEQ ID NO: 422: sequence comprising a region amino-terminally adjacent to epitope 11 (PMKFDAKIDV; epitope)”, the “binding to IgE antibodies from patients, sequence comprising a region amino-terminally adjacent to the epitope” value is “binding to IgE antibodies from patients”. Same read-out and setting: for “SEQ ID NO: 324: sequence comprising a region amino-terminally adjacent to epitope 2 (MFQMTIKKS; epitope)” the value was “binding to IgE antibodies from patients”; for “SEQ ID NO: 385: sequence comprising a region amino-terminally adjacent to epitope 8 (ELGKALQGWK; epitope)”, “binding to IgE antibodies from patients”. On to “SEQ ID NO: 479: sequence comprising a region amino-terminally adjacent to epitope 20 (KSAGEATNLK; epitope)”, for which the “binding to IgE antibodies from patients, sequence comprising a region amino-terminally adjacent to the epitope” value was “binding to IgE antibodies from patients”. Consider “SEQ ID NO: 335: region in epitope 3 (KMKLALKCIG; epitope)”, for which the “region within the epitope important” value is recorded as “important for binding”.

Take “SEQ ID NO: 379: region in epitope 8 (KALQGWKELP; epitope)”: the “region within the epitope important” value is “important for binding”.

For “SEQ ID NO: 356: region in epitope 5 (KLDS; epitope)”, the “region within the epitope important” value was “important for binding”.

For “SEQ ID NO: 644: sequence comprising a region amino-terminally adjacent to epitope 42 (QELLFGRL; epitope)”, the “binding to IgE antibodies from patients, sequence comprising a region amino-terminally adjacent to the epitope” value is “binding to IgE antibodies from patients”.

“SEQ ID NO: 500: region in epitope 21 (DKLYFDG; epitope)”: the “region within the epitope important” value is “important for binding”. With “SEQ ID NO: 342: sequence comprising a region amino-terminally adjacent to epitope 4 (DAITALKKIA; epitope)”, the “binding to IgE antibodies from patients, sequence comprising a region amino-terminally adjacent to the epitope” value is “binding to IgE antibodies from patients”.

In the case of “SEQ ID NO: 515: sequence comprising a region carboxy-terminally adjacent to epitope 22 (GYLAKNAVSF; epitope)”, the “binding to IgE antibodies from patients, sequence comprising a region carboxy-terminally adjacent to the epitope” value is recorded as “binding to IgE antibodies from patients”. Consider “SEQ ID NO: 659: region in epitope 46 (MSFDSDSASG; epitope)”, for which the “region within the epitope important” value is “important for binding”. For the substance “SEQ ID NO: 579: region in epitope 35 (VSKRVS; epitope)”, the “region within the epitope important” value was “important for binding”. Regarding “SEQ ID NO: 426: sequence comprising a region carboxy-terminally adjacent to epitope 11 (LKNLKIETNP; epitope)”, the “binding to IgE antibodies from patients, sequence comprising a region carboxy-terminally adjacent to the epitope” value was “binding to IgE antibodies from patients”. As for “SEQ ID NO: 461: region in epitope 19 (KIKTF; epitope)”, the “region within the epitope important” value is “important for binding”. “SEQ ID NO: 541: region in epitope 27 (ICGKYDAEKK; epitope)”: the “region within the epitope important” value is given as “important for binding”. For “SEQ ID NO: 512: region in epitope 22 (MPNGYLAKNA; epitope)”, the “region within the epitope important” value is “important for binding”. Regarding “SEQ ID NO: 400: region in epitope 8 (GWKELPTETP; epitope)”, the “region within the epitope important” value is “important for binding”. Regarding “SEQ ID NO: 665: sequence comprising a region carboxy-terminally adjacent to epitope 46 (SDSASGET; epitope)”, the “binding to IgE antibodies from patients, sequence comprising a region carboxy-terminally adjacent to the epitope” value is “binding to IgE antibodies from patients”. For “SEQ ID NO: 473: region in epitope 20 (INIKIGSH; epitope)”, the “region within the epitope important” value is given as “important for binding”.
